In publication PMC9612383, “Biological Activity of NHC-Gold-Alkynyl Complexes Derived from 3-Hydroxyflavones” (Pharmaceutics, 2022):
Like-named read-outs stand apart in the source and are kept apart here.

Legend:
[1] = test system: panel of Gram-positive and Gram-negative strains; experiment: Disk diffusion method, whole panel (summary in words); assay type: cell-based; settings: for antibacterial effect (in words): whole panel, Gram-positive and Gram-negative strains
Description: (§1) To evaluate the antibacterial potential of gold derivatives, […] bacterial strains were selected: E. coli, P. aeruginosa, S. enterica, E. faecalis, L. monocytogenes, S. epidermidis, S. aureus. Dis diffusion assay was performed following Clinical & Laboratory Standards Institute (CLSI) recommendations. Active cultures (0.5 McFarland) from all strains were spread onto Mueller–Hinton Agar (MHA, Oxoid, Basingstoke, UK) and disks impregnated with 10 µL of each gold complex or control (DMSO for negative control, phenol for positive control) were placed. Plates were and incubated for 22 h ± 2 h at 37 °C ± 1 °C and then the diameter of the inhibition zone was determined.
Given that NHC-gold derivatives might display antibacterial activity, we evaluated the antibacterial effect of the complexes toward a panel of Gram-positive and Gram-negative strains using the disk diffusion method. The selected strains are human pathogen or commensal bacteria and the results are summarized on Table 1.

Caco-2 cells [2] = experiment: MTT antiproliferative assay; assay type: cell-based, Human; settings: for IC50: Caco-2 cell line, 72 h incubation, mean ± SE
Description: Human colorectal adenocarcinoma Caco-2 cells were kindly provided by Dr. Edith Brot-Laroche (Universite Pierre et Marie Curie-Paris 6 UMR S872, Les Cordeliers, France) and were maintained in a humidified atmosphere of 5% CO2 at 37 °C in Dulbecco’s Modified Eagles medium (DMEM) (Gibco Invitrogen, Paisley, UK) supplemented with 20% fetal bovine serum, 1% non-essential amino acids, 1% penicillin (1000 U/mL), 1% streptomycin ([…]) and 1% amphotericin (250 U/mL). For treatment, gold complexes were initially dissolved in DMSO to a concentration of 20 mM and then diluted on cell culture without fetal bovine serum to the required work concentrations, which was added 24 h post-seeding. Then, cells were incubated at 37 °C for the required time for each assay.
Cell viability was determined with the 3-(4,5-dimethyl-2-thiazoyl)-2,5-diphenyltetrazolium bromide (MTT) assay as previously described by Mármol et al.. For IC50 calculation, cells were grown in 96-well plates at a density of 4000 cells per well and incubated overnight at standard culture conditions. Then, cells were exposed 72 h to 0–20 μM of each gold complex and changes in absorbance were converted into percentage of growth inhibition in comparison to negative control (DMSO. Absorbance was measured with SPECTROstar Nano (BMG Labtech).

[3] = n-Octanol-water distribution coefficient, shake-flask; assay type: physicochemical; settings: for LogP7.4 (distribution coefficient): n-octanol / buffered aqueous solution pH 7.4
Description: The n-octanol-water coefficients of the complexes were determined as previously reported using a shake-flask method. Buffered-saline distilled water (100 mL, phosphate buffer [PO4^3−] = 10 mM, [NaCl] = 0.15 M, pH 7.4) and n-octanol (100 mL) were shaken for 72 h to allow saturation of both phases. Approximately 1 mg of the complexes was dissolved in 5 mL of the aqueous phase and 5 mL of the organic phase were added, mixing for 10 min. The resulting emulsion was centrifuged to separate the phases. The concentration of the compounds in each phase was determined using UV absorbance spectroscopy. LogP was defined as log{[compound(organic)]/[compound(aqueous)]}.

E. faecalis = experiment: Disk diffusion test; assay type: cell-based; settings: for Inhibition Zone: complex 5 μg, 24 h incubation, diameter including disk (6 mm)
Description: (§2) To evaluate the antibacterial potential of gold derivatives, six bacterial strains were selected: E. coli, P. aeruginosa, S. enterica, E. faecalis, L. monocytogenes, S. epidermidis, S. aureus. Dis diffusion assay was performed following Clinical & Laboratory Standards Institute (CLSI) recommendations. […] Plates were and incubated for 22 h ± 2 h at 37 °C ± 1 °C and then the diameter of the inhibition zone was determined.

L. monocytogenes = experiment: Disk diffusion test; assay type: cell-based; settings: for Inhibition Zone: complex 5 μg, 24 h incubation, diameter including disk (6 mm)
Description: as §2

P. aeruginosa = experiment: Disk diffusion test; assay type: cell-based; settings: for Inhibition Zone: complex 5 μg, 24 h incubation, diameter including disk (6 mm)
Description: as §2

S. aureus 13565 = experiment: Disk diffusion test; assay type: cell-based; settings: for Inhibition Zone: complex 5 μg, 24 h incubation, diameter including disk (6 mm)
Description: as §2

S. aureus 2593 = experiment: Disk diffusion test; assay type: cell-based; settings: for Inhibition Zone: complex 5 μg, 24 h incubation, diameter including disk (6 mm)
Description: as §2

S. epidermidis = experiment: Disk diffusion test; assay type: cell-based; settings: for Inhibition Zone: complex 5 μg, 24 h incubation, diameter including disk (6 mm)
Description: as §2

E. coli 13216 = experiment: Disk diffusion test; assay type: cell-based
Description: as §2

E. coli 8739 = experiment: Disk diffusion test; assay type: cell-based
Description: as §2

S. enterica 25928 = experiment: Disk diffusion test; assay type: cell-based; settings: Salmonella enterica, 25928; positive control 5.35 mg, 24 h incubation; diameter including disk (6 mm)
Description: as §1

E. coli 25922 = experiment: Disk diffusion test; assay type: cell-based; settings: Escherichia coli, 25922, 24 h, read-out: Inhibition Zone
Description: as §2

S. enterica 14028 = experiment: Disk diffusion test; assay type: cell-based; settings: Salmonella enterica, 14028, 24 h, read-out: Inhibition Zone
Description: as §2

Caco-2 cells [4] = test system: Caco-2 cells; design: method as in PMID 31546196; settings: earlier work of the authors; cited from earlier work
[5] = test system: thioredoxin reductase enzyme; design: method as in PMID 31546196; settings: earlier work of the authors; cited from earlier work
Caco-2 cells [6] = test system: Caco-2 cells; design: method as in PMID 31546196; settings: cited from earlier work
[7] = design: method as in PMID 31546196; settings: cited from earlier work
[8] = complex 5 μg, 24 h incubation, diameter including disk (6 mm)

## Cn1cc[n+](C)[c]1[Au-][C]#CCOc1c(-c2ccccc2)oc2ccccc2c1=O [1a, [Au(La)(IMe)] (R = H; IMe = C5H10N2)]
[1]
  antibacterial effect (in words): no antibacterial effect
Caco-2 cells [2]
  IC50: 43.3 ± 5.06 µM
[3]
  LogP7.4 (distribution coefficient): 0.34

## Cn1cc[n+](C)[c]1[Au-][C]#CCOc1c(-c2ccc(Cl)cc2)oc2ccccc2c1=O [1c, [Au(Lc)(IMe)] (R = Cl; IMe = C5H10N2)]
[1]
  antibacterial effect (in words): no antibacterial effect
Caco-2 cells [2]
  IC50: 15.1 ± 3.04 µM
[3]
  LogP7.4 (distribution coefficient): 1.96

## COc1ccc(-c2oc3ccccc3c(=O)c2OCC#[C][Au-][c]2n(C)cc[n+]2C)cc1 [1d, [Au(Ld)(IMe)] (R = OMe; IMe = C5H10N2)]
E. faecalis
  Inhibition Zone: 9.47 ± 1.67 mm
L. monocytogenes
  Inhibition Zone: 14.25 ± 1.06 mm
P. aeruginosa
  Inhibition Zone: -
S. aureus 13565
  Inhibition Zone: 11.86 ± 0.20 mm
S. aureus 2593
  Inhibition Zone: 9.70 ± 0.02 mm
S. epidermidis
  Inhibition Zone: 17.23 ± 0.87 mm
[1]
  antibacterial effect on Gram-negative strains (in words): inactive against Gram-negative strains
  antibacterial effect on Gram-positive strains (in words): able to inhibit the growth of all Gram-positive bacterial strains
Caco-2 cells [2]
  IC50: 16.3 ± 1.04 µM
[3]
  LogP7.4 (distribution coefficient): 0.22

## CC(C)c1cccc(C(C)C)c1-n1cc[n+](-c2c(C(C)C)cccc2C(C)C)[c]1[Au-][C]#CCOc1c(-c2ccccc2)oc2ccccc2c1=O [2a, [Au(La)(IPr)] (R = H; IPr = C27H38N2)]
Caco-2 cells [2]; Caco-2, 72 h, p < 0.05
  fold lower IC50 of 2a than homologue 1a: 2.65 times
Caco-2 cells [2]
  IC50: 16.3 ± 2.04 µM
[3]; from log P, pH 7.4
  lipophilic character (in words): balanced hydrophilic-lipophilic character
[3]
  LogP7.4 (distribution coefficient): 0.42

## CC(C)c1cccc(C(C)C)c1-n1cc[n+](-c2c(C(C)C)cccc2C(C)C)[c]1[Au-][C]#CCOc1c(-c2ccc(Br)cc2)oc2ccccc2c1=O [2b, [Au(Lb)(IPr)] (R = Br; IPr = C27H38N2)]
E. coli 13216; [8]
  Inhibition Zone: 8.10 ± 0.60 mm
E. coli 8739; [8]
  Inhibition Zone: 8.97 ± 0.49 mm
E. faecalis
  Inhibition Zone: 12.1 ± 0.99 mm
L. monocytogenes
  Inhibition Zone: 17.17 ± 0.24 mm
P. aeruginosa
  Inhibition Zone: -
S. aureus 13565
  Inhibition Zone: 14.03 ± 0.17 mm
S. aureus 2593
  Inhibition Zone: 12.79 ± 1.11 mm
S. epidermidis
  Inhibition Zone: 20.95 ± 0.91 mm
[1]
  antibacterial effect (in words): able to interfere with the development of both Gram positive and Gram negative strains
Caco-2 cells [2]
  IC50: 53.9 ± 22.7 µM
[3]
  LogP7.4 (distribution coefficient): 1.47

## CC(C)c1cccc(C(C)C)c1-n1cc[n+](-c2c(C(C)C)cccc2C(C)C)[c]1[Au-][C]#CCOc1c(-c2ccc(Cl)cc2)oc2ccccc2c1=O [2c, [Au(Lc)(IPr)] (R = Cl; IPr = C27H38N2)]
E. faecalis
  Inhibition Zone: 10.25 ± 1.41 mm
L. monocytogenes
  Inhibition Zone: 15.33 ± 0.47 mm
P. aeruginosa
  Inhibition Zone: -
S. aureus 13565
  Inhibition Zone: 12.19 ± 0.88 mm
S. aureus 2593
  Inhibition Zone: 10.49 ± 1.13 mm
S. epidermidis
  Inhibition Zone: 18.06 ± 2.04 mm
[1]
  antibacterial effect on Gram-negative strains (in words): inactive against Gram-negative strains
  antibacterial effect on Gram-positive strains (in words): able to inhibit the growth of all Gram-positive bacterial strains
Caco-2 cells [2]
  IC50: 46.1 ± 22.5 µM
[3]
  LogP7.4 (distribution coefficient): 1.11

## COc1ccc(-c2oc3ccccc3c(=O)c2OCC#[C][Au-][c]2n(-c3c(C(C)C)cccc3C(C)C)cc[n+]2-c2c(C(C)C)cccc2C(C)C)cc1 [2d, [Au(Ld)(IPr)] (R = OMe; IPr = C27H38N2)]
[1]
  antibacterial effect (in words): no antibacterial effect
Caco-2 cells [2]
  IC50: 48.2 ± 14.6 µM
[3]
  LogP7.4 (distribution coefficient): 3.40

## CC(=O)OC[C@H]1O[C@@H]([S-])[C@H](OC(C)=O)[C@@H](OC(C)=O)[C@@H]1OC(C)=O.CCP(CC)CC.[Au+] [Auranofin, 2,3,4,6-tetraacetyl-1-thio-β-D-glucopyranosato-S-triethylphosphane gold(I), reference compound]
Caco-2 cells [2]
  IC50: 1.8 ± 0.1 µM
[3]
  LogP7.4 (distribution coefficient): −2.53

## Oc1ccccc1 [Phenol, reference compound]
S. enterica 25928
  zone of inhibition at 5350 µg/disc: 19.2 ± 0.42 mm
E. coli 13216; Escherichia coli, 13216, 24 h, read-out: Inhibition Zone
  zone of inhibition at 5350 µg/disc: 20.7 ± 2.97 mm
E. coli 25922
  zone of inhibition at 5350 µg/disc: 23.4 ± 1.26 mm
E. coli 8739; Escherichia coli, 8739, 24 h, read-out: Inhibition Zone
  zone of inhibition at 5350 µg/disc: 22.7 ± 1.37 mm
E. faecalis; Enterococcus faecalis, 24 h, read-out: Inhibition Zone
  zone of inhibition at 5350 µg/disc: 13.5 ± 2.12 mm
L. monocytogenes; Listeria monocytogenes, 24 h, read-out: Inhibition Zone
  zone of inhibition at 5350 µg/disc: 16.58 ± 0.12 mm
P. aeruginosa; Pseudomonas aeruginosa, 24 h, read-out: Inhibition Zone
  zone of inhibition at 5350 µg/disc: 30.5 ± 1.45 mm
S. aureus 13565; Staphylococcus aureus, 13565, 24 h, read-out: Inhibition Zone
  zone of inhibition at 5350 µg/disc: 17.2 ± 3.38 mm
S. aureus 2593; Staphylococcus aureus, 2593, 24 h, read-out: Inhibition Zone
  zone of inhibition at 5350 µg/disc: 12.1 ± 0.73 mm
S. enterica 14028
  zone of inhibition at 5350 µg/disc: 27.8 ± 1.11 mm
S. epidermidis; Staphylococcus epidermidis, 24 h, read-out: Inhibition Zone
  zone of inhibition at 5350 µg/disc: 22.7 ± 4.49 mm

## O=c1c(OCC#[C][Au][PH](c2ccccc2)(c2ccccc2)c2ccccc2)c(-c2ccc(Br)cc2)oc2ccccc12 [[Au(L2b)PPh3]]
Caco-2 cells [4]
  ROS levels (in words): induce an increase in ROS levels
[5]
  thioredoxin reductase inhibition (in words): able to inhibit thioredoxin reductase enzyme

## O=c1c(OCC#[C][Au][PH](c2ccccc2)(c2ccccc2)c2ccccc2)c(-c2ccc(Cl)cc2)oc2ccccc12 [[Au(L2c)PPh3]]
Caco-2 cells [6]
  IC50: 5.34 ± 0.05 µM
[7]
  distribution coefficient value: 1.17

## Cn1ccn(C)[c]1=[Au-2][Cl] [[AuCl(IMe)], reference compound]
Caco-2 cells [2]
  IC50: > 100 µM
Caco-2 cells [2]; Caco-2 cells
  antiproliferative effect (in words): ineffective

## CC(C)c1cccc(C(C)C)c1-n1ccn(-c2c(C(C)C)cccc2C(C)C)[c]1=[Au][Cl] [[AuCl(IPr)], reference compound]
Caco-2 cells [2]
  IC50: 9.09 ± 3.22 µM
